Assay results published in ChEMBL document CHEMBL1201862, “PubChem BioAssay data set” (2004).
Activity calls are given as the source filed them.

Legend:
cells = assay type: functional
[1] = Luminescence Cell-Based Dose Confirmation HTS to Identify Inhibitors of Polyadenylation.; assay type: functional
Protein Tat = target: T1, Protein Tat (Human immunodeficiency virus type 1 group M subtype B (isolate HXB2)(HIV-1), UniProt P04608); assay type: functional;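 note: tat binding to TAR RNA read out by fluorescence polarization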
T1 sequence (P04608 whole entry): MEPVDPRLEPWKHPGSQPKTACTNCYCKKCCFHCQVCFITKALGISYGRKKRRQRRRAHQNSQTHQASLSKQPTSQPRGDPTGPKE

[2] = growth suppression of PTEN-null colon cells, dose response, cell-based, HCT116 PTEN knockout (AID 1047); assay type: functional;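 note: HCT116 colon tumor cells with PTEN knocked out; cells exposed to compound for 60 hours before readout; potency for loss of cell viability measured by luminescence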
[3] = target: Induced myeloid leukemia cell differentiation protein Mcl-1 (Homo sapiens, UniProt Q07820); assay type: functional
[4] = Vero cell cytotoxicity, dose response, cytotoxicity control for Vif-APOBEC3G degradation inhibitor project, Vero cells (AID 1117358); assay type: functional; settings: Human immunodeficiency virus 1, Vero
[5] = growth suppression of beta-catenin-knockout colon cells, dose response, cell-based, HCT116, human colon tumor (AID 1045); assay type: functional;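 note: HCT116 colon tumor cells with beta catenin knocked out; cells exposed to compound for 60 hours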
Fibrinogen beta chain [6] = target: T2, Fibrinogen beta chain (Homo sapiens, UniProt P02675); test: Fluorescence polarization-based biochemical high throughput dose response assay to identify inhibitors that disrupt the binding of a cyclic peptide (Tn7) to the fibrin proteolytic product D-Dimer and fragment E complex [DD(E )].
T2 sequence (P02675 whole entry): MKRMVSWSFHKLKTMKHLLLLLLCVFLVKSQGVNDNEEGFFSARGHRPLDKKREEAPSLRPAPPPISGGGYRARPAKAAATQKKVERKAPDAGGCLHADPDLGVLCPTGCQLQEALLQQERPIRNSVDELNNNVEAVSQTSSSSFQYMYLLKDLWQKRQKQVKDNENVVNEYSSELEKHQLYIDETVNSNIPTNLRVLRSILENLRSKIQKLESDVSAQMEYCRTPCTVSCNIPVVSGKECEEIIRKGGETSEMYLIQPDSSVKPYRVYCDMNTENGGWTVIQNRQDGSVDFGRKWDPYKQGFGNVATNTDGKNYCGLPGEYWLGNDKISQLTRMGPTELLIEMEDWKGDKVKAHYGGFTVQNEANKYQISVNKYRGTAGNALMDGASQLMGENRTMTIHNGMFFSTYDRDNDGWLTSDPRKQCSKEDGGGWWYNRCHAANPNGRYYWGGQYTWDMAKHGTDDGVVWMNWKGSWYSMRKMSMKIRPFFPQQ

Fibrinogen beta chain [7] = target: T2, Fibrinogen beta chain; test: Fluorescence polarization-based biochemical high throughput dose response assay to identify inhibitors that disrupt the binding of a cyclic peptide (Tn6) to the fibrin proteolytic product D-Dimer and fragment E complex [DD(E )].
[8] = target: T3, Carboxy-terminal domain RNA polymerase II polypeptide A small phosphatase 1 (Homo sapiens, UniProt Q9GZU7); test: inhibitors of CTDSP1, concentration-response testing, biochemical assay, absorbance-based, actives from ultra-high-throughput screening (AID 540297); assay type: functional
T3 sequence (Q9GZU7 whole entry): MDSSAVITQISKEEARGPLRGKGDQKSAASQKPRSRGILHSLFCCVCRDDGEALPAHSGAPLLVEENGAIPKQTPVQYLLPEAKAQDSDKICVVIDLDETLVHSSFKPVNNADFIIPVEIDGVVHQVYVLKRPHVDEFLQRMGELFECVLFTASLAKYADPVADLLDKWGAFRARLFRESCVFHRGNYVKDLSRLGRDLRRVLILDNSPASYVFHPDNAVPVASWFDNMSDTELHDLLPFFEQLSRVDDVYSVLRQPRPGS

[9] = target: E3 ubiquitin-protein ligase UHRF1 (Homo sapiens, UniProt Q96T88); test: Counterscreen for inhibitors of 5-meCpG-binding domain protein 2 (MBD2): TRFRET-based biochemical high throughput dose response assay to identify inhibitors of binding of ubiquitin-like with PHD and ring finger domains 1 (UHRF1) to methylated oligonucleotide.
Estrogen receptor beta [10] = target: T4, Estrogen receptor beta (Homo sapiens, UniProt Q92731);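 note: recombinant ER-beta bound to coactivator SRC1 peptide in presence of estradiol agonist; inhibitors block coactivator peptide binding and lower the FRET signal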
[11] = HeLa 4N DNA content increase, dose response, cell-based, IC50 (AID 1117351); assay type: functional
P388/ADR = test: cells; assay type: functional; settings: Mus musculus
SN12K1 = test: cells; assay type: functional; settings: Homo sapiens
[12] = HeLa 2N DNA content increase, dose response, cell-based, IC50 (AID 1117349); assay type: functional
P388 = test: cells; assay type: functional; settings: Mus musculus
Estrogen receptor beta [13] = target: T4, Estrogen receptor beta; test: ERβ–SRC-3 coactivator interaction inhibitors, confirmation, orthogonal assay, biochemical, ELISA, streptavidin-HRP readout (AID 1060)

T4 sequence (Q92731 whole entry): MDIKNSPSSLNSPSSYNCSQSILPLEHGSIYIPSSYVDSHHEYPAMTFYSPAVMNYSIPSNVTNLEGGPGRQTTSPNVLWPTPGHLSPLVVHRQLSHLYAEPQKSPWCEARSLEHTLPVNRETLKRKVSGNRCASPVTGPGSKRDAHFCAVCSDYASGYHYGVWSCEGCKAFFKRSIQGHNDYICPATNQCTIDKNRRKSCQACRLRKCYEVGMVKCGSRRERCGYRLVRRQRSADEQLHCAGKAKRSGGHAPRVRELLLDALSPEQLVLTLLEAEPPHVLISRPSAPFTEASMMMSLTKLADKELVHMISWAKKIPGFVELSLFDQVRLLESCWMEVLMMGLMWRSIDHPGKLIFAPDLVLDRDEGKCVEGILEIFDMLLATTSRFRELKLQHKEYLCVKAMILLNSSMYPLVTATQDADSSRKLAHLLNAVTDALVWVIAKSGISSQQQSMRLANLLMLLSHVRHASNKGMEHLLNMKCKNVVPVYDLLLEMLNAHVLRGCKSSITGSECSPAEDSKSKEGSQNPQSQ
Induced myeloid leukemia cell differentiation protein Mcl-1, sequence (Q07820 whole entry): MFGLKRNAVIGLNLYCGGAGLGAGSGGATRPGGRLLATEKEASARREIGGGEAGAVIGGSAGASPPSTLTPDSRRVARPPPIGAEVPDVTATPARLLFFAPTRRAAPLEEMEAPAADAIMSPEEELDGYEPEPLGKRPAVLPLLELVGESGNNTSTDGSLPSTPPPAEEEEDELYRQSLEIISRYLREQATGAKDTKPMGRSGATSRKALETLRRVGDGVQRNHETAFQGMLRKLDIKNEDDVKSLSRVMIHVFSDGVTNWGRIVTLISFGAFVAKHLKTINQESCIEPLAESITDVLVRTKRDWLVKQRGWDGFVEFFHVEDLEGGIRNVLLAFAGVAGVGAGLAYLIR
E3 ubiquitin-protein ligase UHRF1, sequence (Q96T88 whole entry, the tested form may be a part): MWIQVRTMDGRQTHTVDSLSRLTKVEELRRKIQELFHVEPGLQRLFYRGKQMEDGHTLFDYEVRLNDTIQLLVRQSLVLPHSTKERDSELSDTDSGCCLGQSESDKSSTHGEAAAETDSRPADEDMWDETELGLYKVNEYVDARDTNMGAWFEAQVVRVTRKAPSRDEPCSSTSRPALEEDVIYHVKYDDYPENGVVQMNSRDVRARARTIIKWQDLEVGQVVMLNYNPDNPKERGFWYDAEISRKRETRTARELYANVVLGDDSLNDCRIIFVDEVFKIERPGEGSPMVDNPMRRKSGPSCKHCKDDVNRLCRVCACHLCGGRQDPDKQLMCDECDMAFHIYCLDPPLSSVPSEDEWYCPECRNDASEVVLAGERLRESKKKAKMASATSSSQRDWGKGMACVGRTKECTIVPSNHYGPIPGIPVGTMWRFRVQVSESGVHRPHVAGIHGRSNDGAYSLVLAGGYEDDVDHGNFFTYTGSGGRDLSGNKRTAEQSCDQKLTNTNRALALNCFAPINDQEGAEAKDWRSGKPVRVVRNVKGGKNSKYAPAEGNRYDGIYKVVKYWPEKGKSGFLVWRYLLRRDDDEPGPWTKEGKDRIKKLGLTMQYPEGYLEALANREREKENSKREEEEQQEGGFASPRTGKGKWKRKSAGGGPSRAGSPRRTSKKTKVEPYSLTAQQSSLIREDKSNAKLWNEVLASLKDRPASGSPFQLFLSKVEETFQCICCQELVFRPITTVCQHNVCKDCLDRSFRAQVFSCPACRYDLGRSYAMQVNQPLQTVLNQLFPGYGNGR

COc1cccc2cc(-c3nc4ccccc4o3)c(=O)oc12
IC50 (cells): 14.9 µM (active)
EC50 [1]: > 120 µM (not active)

O=C1NC(=S)N/C1=C/c1ccc(-c2c(Br)cc([N+](=O)[O-])cc2Br)o1
IC50 (Protein Tat): > 100 µM (active)
EC50 [2]: 40.5 µM (active)
IC50 [3]: 2.48 µM (active)
CC50 [4]: > 40 µM (active)
EC50 [5]: 35.2 µM (active)

Cc1cc(C)c(S(=O)(=O)NCCn2c(C)cc3ccccc32)c(C)c1
IC50 (Fibrinogen beta chain [6]): > 83.3 µM (inactive)
IC50 (Fibrinogen beta chain [7]): 15.1 µM (inactive)

NC(=O)c1ccc(N/C=C2/C(=O)NC(=O)N(Cc3ccco3)C2=O)cc1
IC50 [8]: 3.45 µM (active)
IC50 [9]: 31.3 µM (inactive)

Cc1cccc(NC(=O)C2CCN(S(=O)(=O)c3c(C)nn(C)c3C)CC2)n1
IC50 (Estrogen receptor beta [10]): > 50 µM (not active)

O=C(CCBr)N1CCN(C(=O)CCBr)CC1 [PIPOBROMAN]
IC50 [11]: > 10 µM (inactive)
GI50 (P388/ADR): 13.2 µM (inactive)
GI50 (SN12K1): 65.3 µM (inactive)
IC50 [12]: > 10 µM (inactive)
GI50 (P388): 14.1 µM (inactive)

Cc1nn(-c2ccccc2)c(C)c1NC(=O)Cc1cccs1
IC50 (Estrogen receptor beta [10]): 27.1 µM (active)
IC50 (Estrogen receptor beta [13]): 0.0611 µM (not active)

Cc1cc2c(cc1S(=O)(=O)N(C)c1ccccc1)n(C)c(=O)n2C
EC50 [1]: > 120 µM (not active)
